From publication PMC5772355 (Scientific Reports, 2018)
pIC50: −log10 of the molar value.

Experiments:
[1] = molecular target: T1, xCT (SLC7A11), system xc− (Mus musculus, UniProt Q9WTR6); assay: inhibition of L-[…]cystine uptake in xCT-overexpressing MEF; assay type: cell-based
T1 construct: coding region of murine xCT, stably overexpressed in MEF; with 4F2 heavy chain (SLC3A2)
T1 sequence (Q9WTR6 1-502): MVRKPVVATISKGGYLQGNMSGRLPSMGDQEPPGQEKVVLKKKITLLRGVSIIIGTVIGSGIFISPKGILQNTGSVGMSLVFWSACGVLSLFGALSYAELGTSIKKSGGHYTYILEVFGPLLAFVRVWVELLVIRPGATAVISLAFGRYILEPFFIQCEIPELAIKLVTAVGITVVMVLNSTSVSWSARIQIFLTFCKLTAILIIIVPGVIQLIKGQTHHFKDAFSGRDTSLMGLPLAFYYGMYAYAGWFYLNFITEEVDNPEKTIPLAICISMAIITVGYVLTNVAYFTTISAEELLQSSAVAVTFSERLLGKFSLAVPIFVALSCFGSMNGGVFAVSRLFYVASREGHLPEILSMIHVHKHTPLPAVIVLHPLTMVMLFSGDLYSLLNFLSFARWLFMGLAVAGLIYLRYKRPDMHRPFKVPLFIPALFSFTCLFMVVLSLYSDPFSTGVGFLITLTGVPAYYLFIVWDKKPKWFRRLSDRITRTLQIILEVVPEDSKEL
T1 sequence (P10852 1-526 partner): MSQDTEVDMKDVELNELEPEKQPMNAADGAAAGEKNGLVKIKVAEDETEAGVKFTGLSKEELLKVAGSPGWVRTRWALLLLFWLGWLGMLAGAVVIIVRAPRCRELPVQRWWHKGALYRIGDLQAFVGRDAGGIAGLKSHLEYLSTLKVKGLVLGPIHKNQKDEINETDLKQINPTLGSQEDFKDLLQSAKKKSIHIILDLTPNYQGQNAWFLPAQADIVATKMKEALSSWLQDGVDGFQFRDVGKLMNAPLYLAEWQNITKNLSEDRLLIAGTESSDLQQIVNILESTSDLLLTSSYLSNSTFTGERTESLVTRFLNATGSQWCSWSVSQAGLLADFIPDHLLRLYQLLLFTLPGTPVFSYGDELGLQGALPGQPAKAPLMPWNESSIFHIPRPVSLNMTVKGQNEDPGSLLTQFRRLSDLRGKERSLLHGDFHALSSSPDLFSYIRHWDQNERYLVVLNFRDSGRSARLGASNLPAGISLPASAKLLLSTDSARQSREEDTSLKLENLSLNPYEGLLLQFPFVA

[2] = molecular target: T1, xCT (SLC7A11), system xc−; assay: as above; assay type: cell-based; remark: listed apart in the source

SMILES	inhibition at 100 µM [1] [%]	pIC50 [2]
N[C@@H](CCC(=O)O)C(=O)O [Glu, L-glutamate]	~50	
O=C(O)c1cc(/N=N/c2ccc(S(=O)(=O)Nc3ccccn3)cc2)ccc1O [SAS, sulfasalazine]		4.58
N[C@@H](Cn1oc(=O)[nH]c1=O)C(=O)O [QA, quisqualic acid]		4.81
CCOc1ccccc1-n1c(C(C)N2CCN(C(=O)COc3ccc(Cl)cc3)CC2)nc2ccccc2c1=O (stereo not shown) [erastin]		5.85
